Reference: patent EP1594520B1, “USE OF BRADYKININ-B2 RECEPTOR ANTAGONISTS FOR TREATING OSTEOARTHROSIS” (Sanofi-Aventis Deutschland GmbH, priority 2003, dated 2006)

System: SW1353 Zellen
Experiment: MMP-3 release from IL-1 stimulated SW1353 chondrosarcoma cells (MMP3 ELISA of the culture supernatant)
Assay type: cell-based
Experimental: Für die Analyse der krankheitsmodifizierenden Wirkung von HOE140 in einem Knorpelrelevanten Zellkulturmodel wurde die MMP3 Expression in der Chondrosarcom Zellline SW1353 (ATCC: HTB 94) analysiert. Für die Versuche wurden SW1353 Zellen unter Standard Bedingungen (37°C, 5% CO2) in DMEM-Glutamax mit 10% Fötalem Kälberserum (FKS) in Plastikkulturflaschen kultiviert. Nach ab-trypsinieren der Zellen wurden 50.000 Zellen je well einer 96-well Flachboden Platte in Medium ohne FKS ausgesät und mit der Verbindung HOE140 im Inkubator vorinkubiert. […] Nach 24 Stunden Inkubation unter Standardbedingungen wurde der Zellkulturüberstand abgenommen, 5 Minuten zentrifugiert und bei -20 °C bis zur weiteren Analyse eingefroren. Die Analyse der MMP3 Expression in den Zellkulturüberständen erfolgt dann mittels eines kommerziellen MMP3 ELISA Testsystems (Amersham) nach Angaben des Herstellers. Parallel dazu wurde mit den verbleibenden Zellen ein WST-Zytotoxizitätstest durchgeführt. Dazu wurde das kommerzielle Testsystem der Firma Roche verwendet und die Messung nach Angaben des Herstellerprotokolls durchgeführt.
Die nachfolgende Tabelle 1 zeigt die Ergebnisse. Bradykinin erhöht die MMP3 Freisetzung um mehr als 30%. […] Tabelle 1 MMP-3 Freisetzung aus SW-Zellen

Substance	Erhöhung der MMP3 Freisetzung (Bradykinin added to IL1-stimulated SW cells)	MMP-3 Freisetzung MW (OD450nm) (IL1α + Bradykinin (0,1 µM), no antagonist)	Relativwerte bezogen auf Ausgangswert (IL1α + Bradykinin (0,1 µM), no antagonist, IL1α (0,05 ng/ml) alone = 100)	MMP-3 Freisetzung MW (OD450nm) (IL1α + Bradykinin (0,1 µM) + 0,1 µM HOE140)	Relativwerte bezogen auf Ausgangswert (IL1α + Bradykinin (0,1 µM) + 0,1 µM HOE140, IL1α alone = 100)	MMP-3 Freisetzung MW (OD450nm) (IL1α + Bradykinin (0,1 µM) + 0,05 µM HOE140)	MMP-3 Freisetzung MW (OD450nm) (IL1α + Bradykinin (0,1 µM) + 0,5 µM HOE140)	Relativwerte bezogen auf Ausgangswert (IL1α + Bradykinin (0,1 µM) + 0,05 µM HOE140, IL1α alone = 100)	Relativwerte bezogen auf Ausgangswert (IL1α + Bradykinin (0,1 µM) + 0,5 µM HOE140, IL1α alone = 100)	MMP-3 Freisetzung MW (OD450nm) (IL1α + Bradykinin (0,1 µM) + 1 µM HOE140)	Relativwerte bezogen auf Ausgangswert (IL1α + Bradykinin (0,1 µM) + 1 µM HOE140, IL1α alone = 100)	Hemmung der durch Bradykinin erhöhten Freisetzung von MMP 3 (IL1α + Bradykinin (0,1 µM), 0,05 to 1 µM HOE140)
Bradykinin: natürlich vorkommendes Nonapeptid, das einige pharmakologische Effekte aufweist, die zu Entzündungen und Schmerzen führen (RPPGFSPFR; Bradykinin; UniProt P01042 381-389, looked up) [reference compound]	> 30%	433 OD450nm	132,0									
D-Arginyl-L-arginyl-L-prolyl-L-prolylglycyl-3-(2-thienyl)-L-alanyl-L-seryl-(3R)-1,2,3,4-tetrahydro-3-isochinolincarbonyl-(2S,3aS,7aS)-octahydro-1H-indol-2-carbonyl-L-arginin [HOE140]				371 OD450nm	113,1	458 OD450nm	309 OD450nm	139,6	94,2	306 OD450nm	93,3	dosis-abhängig gehemmt
